From patent US12262710B2, “Fungicidal compounds” (SYNGENTA CROP PROTECTION AG, priority 2019, dated 2025)

What was measured:
[1] = test system: Alternaria solani; experiment: Alternaria solani (early blight of tomatoes), tomato leaf disks; assay type: in vivo; details: foliar, inoculated 2 days after application, compared to untreated control
Procedure: Alternaria solani (Early Blight of Tomatoes) Tomato leaf disks are placed on agar in multiwell plates (24-well format) and sprayed with the formulated test compound diluted in water. The leaf disks are inoculated with a spore suspension of the fungus 2 days after application. The inoculated leaf disks are incubated at 23° C./21° C.

[2] = test system: Glomerella lagenarium; experiment: Glomerella lagenarium syn. Colletotrichum lagenarium (anthracnose of cucurbits), liquid culture growth inhibition; assay type: cell-based; details: Colletotrichum orbiculare, nutrient broth (PDB), 72 hrs, photometric at 620 nm, compared to untreated control
Procedure: Glomerella lagenarium Syn. Colletotrichum lagenarium (Anthracnose of Cucurbits): Conidia of the fungus from cryogenic storage were directly mixed into nutrient broth (PDB potato dextrose broth). A DMSO solution of the test compounds was placed into a microtiter plate (96-well format) and the nutrient broth containing the fungal spores was added to it. The test plates were incubated at 24° C. and the inhibition of growth was determined photometrically after 72 hrs at 620 nm. […]

[3] = test system: Erysiphe graminis f. sp. tritici; experiment: Erysiphe graminis f. sp. tritici (wheat powdery mildew), wheat leaf segments, preventive; assay type: in vivo; details: Blumeria graminis, foliar, 168 h, 7 dpi, compared to untreated control
Procedure: (§1) Wheat leaf segments are placed on agar in multiwell plates (24-well format) and sprayed with test solutions. After drying, the leaf disks are inoculated with spores of the fungus. After appropriate incubation the activity of a compound is assessed 7 dpi (days post inoculation) as preventive fungicidal activity.

[4] = test system: Monographella nivalis; experiment: Monographella nivalis syn. Microdochium nivale (snow mould, foot rot of cereals), liquid culture growth inhibition; assay type: cell-based; details: nutrient broth (PDB), 72 hrs, photometric at 620 nm, compared to untreated control
Procedure: Conidia of the fungus from cryogenic storage were directly mixed into nutrient broth (PDB potato dextrose broth). A DMSO solution of the test compounds was placed into a microtiter plate (96-well format) and the nutrient broth containing the fungal spores was added to it. The test plates were incubated at 24° C. and the inhibition of growth was determined photometrically after 72 hrs at 620 nm. […] Cercospora arachidicola (Brown Leaf Spot of Peanut): […]

[5] = test system: Mycosphaerella arachidis; experiment: Mycosphaerella arachidis syn. Cercospora arachidicola (brown leaf spot of peanut), liquid culture growth inhibition; assay type: cell-based; details: nutrient broth (PDB), approximately 5-6 days, photometric at 620 nm, compared to untreated control
Procedure: Conidia of the fungus from cryogenic storage were directly mixed into nutrient broth (PDB potato dextrose broth). A DMSO solution of the test compounds was placed into a microtiter plate (96-well format) and the nutrient broth containing the fungal spores was added to it. The test plates were incubated at 24° C. and the inhibition of growth was determined photometrically after approximately 5-6 […] at 620 nm.

[6] = test system: Phakopsora pachyrhizi; experiment: Phakopsora pachyrhizi (soybean rust), soybean leaf disks, preventive; assay type: in vivo; details: foliar, 288 h, approx. 12 dpi, compared to untreated control
Procedure: as §1, with “Soybean” for “Wheat”, “disks” for “segments”, “a spore suspension” for “spores”, “approx. 12” for “7”, “after” for “post”

[7] = test system: Phytophthora infestans; experiment: whole plant or invertebrate; assay type: in vivo; details: in Solanum lycopersicum, foliar, 96 h, read-out: control of Phytophthora infestans
[8] = test system: Plasmopara viticola; experiment: Plasmopara viticola (downy mildew of grapevine), grape vine leaf disks, preventive; assay type: in vivo; details: foliar, 168 h, 7 dpi, compared to untreated control
Procedure: as §1, with “Grape vine” for “Wheat”, “disks” for “segments”, “a spore suspension” for “spores”, “after” for “post”

[9] = test system: Puccinia recondita f. sp. tritici; experiment: Puccinia recondita (brown rust), curative, wheat leaf segments; assay type: in vivo; details: foliar, 192 h, sprayed 1 day after inoculation, 8 dpi, compared to untreated control
Procedure: (§2) Wheat leaf segments are placed on agar in multiwell plates (24-well format). The leaf segments are inoculated with a spore suspension of the fungus and sprayed with test solutions 1 day after inoculation. After appropriate incubation the activity of a compound is assessed 8 dpi (days after inoculation) as curative fungicidal activity.

[10] = test system: Puccinia recondita f. sp. tritici; experiment: Puccinia recondita (brown rust), preventative, wheat leaf segments; assay type: in vivo; details: foliar, 192 h, 8 dpi, compared to untreated control
Procedure: as §1, with “segments” for “disks”, “a spore suspension” for “spores”, “8” for “7”, “after” for “post”, “preventative” for “preventive”

[11] = test system: Pyricularia oryzae; experiment: whole plant or invertebrate; assay type: in vivo; details: foliar, 120 h, read-out: control of Pyricularia oryzae
[12] = test system: Puccinia recondita; experiment: Example C: comparative activity against Puccinia recondita (brown rust), curative, wheat leaf segments; assay type: in vivo; details: 8 dpi
Procedure: as §2, with “Method; Wheat” for “Wheat”, “activity. The data are presented as the percentage of disease control of each compound for the biological tests and testing rates described below in table H.” for “activity.”

[13] = test system: Phakopsora pachyrhizi; experiment: Example D: comparative activity against Phakopsora pachyrhizi (soybean rust), soybean plants sprayed, leaf disks cut from treated plants; assay type: in vivo; details: 0.1% OCHIMA, leaf disks cut one day after application, approx. 12 dpi
Procedure: Method: Soybean plants are sprayed in a spray chamber with formulated DMSO compound solutions which are diluted to the appropriate concentration with 0.1% […] (adjuvant comprising polyethoxylated sorbitol hexaoleate and tris(2-ethylhexyl) phosphate) just before spraying. Leaf disks are cut from treated plants and placed on agar into 24-well plates one day after application. After, the leaf disks are inoculated with a spore suspension of the fungus. After appropriate incubation the activity of a compound is assessed approx. 12 dpi (days after inoculation) as preventive fungicidal activity. The data are presented as the percentage of disease control of each compound for the biological tests and testing rates described below in Table 1.

[14] = test system: Phakopsora pachyrhizi; experiment: Example E: comparative activity against Phakopsora pachyrhizi (soybean rust), soybean leaf disks sprayed; assay type: in vivo; details: 0.025% Tween20, approx. 12 dpi
Procedure: Method: Compounds to be tested are prepared as DMSO solutions which are diluted to the appropriate concentration with 0.025% Tween20 just before spraying. Soybean leaf disks are placed on agar in multiwell plates (24-well format) and sprayed with test solutions. After drying, the leaf disks are inoculated with a spore suspension of the fungus. After appropriate incubation the activity of a compound is assessed approx. 12 dpi (days after inoculation) as preventive fungicidal activity. The data are presented as the percentage of disease control of each compound for the biological tests and testing rates described below in Table J.

| SMILES | pest or weed control at 200 ppm [1] | inhibition of growth at 20 ppm [2] | pest or weed control at 200 ppm [3] | inhibition of growth at 20 ppm [4] | inhibition of growth at 20 ppm [5] | pest or weed control at 60 ppm [6] | pest or weed control at 200 ppm [7] | pest or weed control at 200 ppm [8] | pest or weed control at 200 ppm [9] | pest or weed control at 200 ppm [10] | pest or weed control at 200 ppm [11] | control (%) Puccinia recondita (Brown rust), curative ([12]; 20 ppm) | control (%) Puccinia recondita (Brown rust), curative ([12]; 60 ppm) | control (%) Puccinia recondita (Brown rust), curative ([12]; 200 ppm) | control (%) Phakopsora pachyrhizi (Soybean rust) ([13]; 6 ppm) | control (%) Phakopsora pachyrhizi (Soybean rust) ([13]; 20 ppm) | control (%) Phakopsora pachyrhizi (Soybean rust) ([13]; 60 ppm) | control (%) Phakopsora pachyrhizi (Soybean rust) ([13]; 200 ppm) | control (%) Phakopsora pachyrhizi (Soybean rust) ([14]; 0.6 ppm) | control (%) Phakopsora pachyrhizi (Soybean rust) ([14]; 2 ppm) | further results |
| --- | --- | --- | --- | --- | --- | --- | --- | --- | --- | --- | --- | --- | --- | --- | --- | --- | --- | --- | --- | --- | --- |
| CO/C=C(\Oc1cc(C2CCCC2)ccc1C)C(=O)OC [E.13, methyl (Z)-2-(5-cyclopentyl-2-methyl-phenoxy)-3-methoxy-prop-2-enoate] | ≥ 80% | ≥ 80% | ≥ 80% | ≥ 80% | ≥ 80% | ≥ 70% | ≥ 80% | ≥ 80% | ≥ 80% | ≥ 80% | ≥ 80% | 0% | 0% | 100% | 0% | 4% | 46% | 98% | 10% | 10% | control (%) Phakopsora pachyrhizi (Soybean rust) ([14]; 6 ppm): 60%; control (%) Phakopsora pachyrhizi (Soybean rust) ([14]; 20 ppm): 100%; control (%) Phakopsora pachyrhizi (Soybean rust) ([14]; 60 ppm): 100%; control (%) Phakopsora pachyrhizi (Soybean rust) ([14]; 200 ppm): 100% |
| CO/C=C(\Oc1cc(C2CCCCC2)ccc1C)C(=O)OC [E.15, methyl (Z)-2-(5-cyclohexyl-2-methyl-phenoxy)-3-methoxy-prop-2-enoate] | ≥ 80% | ≥ 80% | ≥ 80% | ≥ 80% | ≥ 80% | ≥ 70% | ≥ 80% | ≥ 80% | ≥ 80% | ≥ 80% | ≥ 80% | 90% | 100% | 100% | 0% | 51% | 97% | 99% | 10% | 70% | control (%) Phakopsora pachyrhizi (Soybean rust) ([14]; 6 ppm): 95%; control (%) Phakopsora pachyrhizi (Soybean rust) ([14]; 20 ppm): 100%; control (%) Phakopsora pachyrhizi (Soybean rust) ([14]; 60 ppm): 100%; control (%) Phakopsora pachyrhizi (Soybean rust) ([14]; 200 ppm): 100% |
| CO/C=C(\Oc1cc(C2CCCCC2)c(F)cc1C)C(=O)OC [E.16, methyl (Z)-2-(5-cyclohexy1-4-fluoro-2-methyl-phenoxy)-3-methoxy-prop-2-enoate] | ≥ 80% | ≥ 80% | ≥ 80% | ≥ 80% | ≥ 80% |  | ≥ 80% | ≥ 80% | ≥ 80% | ≥ 80% | ≥ 80% |  |  |  |  |  |  |  |  |  |  |
